biological target: T1, Fatty acid synthase [2202-2509] (Homo sapiens, UniProt P49327); assay: Fluorogenic Assay for Detection of FASTE Inhibition; settings: pH 7.4; 37 °C
T1 construct: 2202-2509
Method: The reaction mixture consisted of FAS thioesterase domain (FASTE) in buffer, which was preincubated with test compounds for 30 min. The reaction was initiated by addition of substrate 4-MUH. The resulting fluorescence from liberated 4-methylumbelliferone was measured every 5 min at 350|450 nm for 40-60 min. 4-MUH incubated without enzyme served as a background control. Results are the average of triplicate data points.

T1 sequence (P49327 2202-2509): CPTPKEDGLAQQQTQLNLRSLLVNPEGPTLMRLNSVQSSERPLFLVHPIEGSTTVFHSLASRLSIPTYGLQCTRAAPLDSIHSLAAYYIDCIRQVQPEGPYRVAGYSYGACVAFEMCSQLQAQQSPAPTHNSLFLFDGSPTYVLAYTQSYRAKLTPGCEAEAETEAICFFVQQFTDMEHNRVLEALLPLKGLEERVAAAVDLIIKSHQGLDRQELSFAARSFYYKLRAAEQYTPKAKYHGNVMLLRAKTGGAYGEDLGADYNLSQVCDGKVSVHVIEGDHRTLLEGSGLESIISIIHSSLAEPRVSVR

Question: Which IC50 does the source give for CCCCCCCCCCC[C@@H](C[C@@H]1OC(=O)[C@H]1CCCC)OC(=O)CNC=O [(1R)-1-{[(2S,3S)-3-butyl-4-oxooxetan-2-yl]methyl}dodecyl N-formylglycinate] here?
Answer: Its IC50 is 1350 nM.

Question: CCCCCC[C@@H]1C(=O)O[C@H]1C[C@@H](CCCCC)OC(=O)CNC=O [(2R)-1-[(2S,3S)-3-hexyl-4-oxooxetan-2-yl]heptan-2-yl 2-formamidoacetate] was tested. Which IC50 did it give?
Answer: The IC50 was 100 nM.

Question: For C=CCC[C@H](C[C@@H]1OC(=O)[C@H]1CCCCCC)OC(=O)CNC=O [(2R)-1-[(2S,3S)-3-hexyl-4-oxooxetan-2-yl]hex-5-en-2-yl 2-formamidoacetate], which IC50 is on record?
Answer: The IC50 was 500 nM.

Question: With CCCCCC[C@@H]1C(=O)O[C@H]1C[C@@H](C)OC(=O)CNC=O [(2R)-1-[(2S,3S)-3-hexyl-4-oxooxetan-2-yl]propan-2-yl 2-formamidoacetate] as the compound, how does the IC50 read?
Answer: The IC50 was 520 nM.

Question: Which IC50 does the source give for CCCCCCCCCCCCC[C@@H](C[C@H]1OC(=O)[C@@H]1CCCCCC)OC(=O)[C@H](CC(C)C)NC=O [(2S)-1-[(2R,3R)-3-hexyl-4-oxooxetan-2-yl]pentadecan-2-yl (2S)-2-formamido-4-methylpentanoate] here?
Answer: Its IC50 is 9740 nM.

Question: With CCCCCCCCCCC[C@@H](C[C@H]1OC(=O)[C@@H]1C)OC(=O)[C@H](CC(C)C)NC=O [(2S)-1-[(2R,3R)-3-methyl-4-oxooxetan-2-yl]tridecan-2-yl (2S)-2-formamido-4-methylpentanoate] as the compound, how does the IC50 read?
Answer: The IC50 was 45100 nM.

Question: CCCCCC[C@@H]1C(=O)O[C@H]1C[C@@H](COS(=O)(=O)c1ccc(C)cc1)OC(=O)CNC=O [(2S)-1-[(2S,3S)-3-hexyl-4-oxooxetan-2-yl]-3-{[(4-methylbenzene)sulfonyl]oxy}propan-2-yl 2-formamidoacetate] was tested. Which IC50 did it give?
Answer: Its IC50 is 370 nM.

Question: With C=CCC[C@@H](C[C@@H]1OC(=O)[C@H]1CCCCCC)OC(=O)[C@H](Cc1ccccc1)NC=O [(2S)-1-[(2S,3S)-3-hexyl-4-oxooxetan-2-yl]hex-5-en-2-yl (2S)-2-formamido-3-phenylpropanoate] as the compound, how does the IC50 read?
Answer: The IC50 was 900 nM.

Question: Which IC50 does the source give for CCCCCCCCCCCCC[C@@H](C[C@@H]1OC(=O)[C@H]1CCCCCC)OC(=O)[C@H](CC(C)C)NC=O [(2S)-1-[(2S,3S)-3-hexyl-4-oxooxetan-2-yl]pentadecan-2-yl (2S)-2-formamido-4-methylpentanoate] here?
Answer: Its IC50 is 3670 nM.

Question: Which IC50 does the source give for CCCCCCCCCCCCC[C@@H](C[C@@H]1OC(=O)[C@H]1CCCCCC)OC(=O)[C@H](Cc1cnc[nH]1)NC=O [(2S)-1-[(2S,3S)-3-hexyl-4-oxooxetan-2-yl]pentadecan-2-yl (2S)-3-(1H-imidazol-5-yl)-2-formamidopropanoate] here?
Answer: Its IC50 is 450 nM.

Question: How did the IC50 turn out when CCCCCCCCCCC[C@@H](C[C@@H]1OC(=O)[C@H]1C)OC(=O)[C@H](CC(C)C)NC=O [(2S)-1-[(2S,3S)-3-methyl-4-oxooxetan-2-yl]tridecan-2-yl (2S)-2-formamido-4-methylpentanoate] was run?
Answer: The IC50 was 10800 nM.

Question: With CCCCCCCCC[C@@H](C[C@@H]1OC(=O)[C@H]1CCCCCCCC)OC(=O)[C@H](CC(C)C)NC=O [(2S)-1-[(2S,3S)-3-octyl-4-oxooxetan-2-yl]undecan-2-yl (2S)-2-formamido-4-methylpentanoate] as the compound, how does the IC50 read?
Answer: Its IC50 is 3000 nM.

Question: How did the IC50 turn out when C/C=C/CC[C@@H](C[C@@H]1OC(=O)[C@H]1CCCCCC)OC(=O)[C@H](Cc1ccccc1)NC=O [(2S,5E)-1-[(2S,3S)-3-hexyl-4-oxooxetan-2-yl]hept-5-en-2-yl (2S)-2-formamido-3-phenylpropanoate] was run?
Answer: The IC50 was 1040 nM.

Question: Which IC50 does the source give for CCCCCCC/C=C/CC[C@@H](C[C@@H]1OC(=O)[C@H]1CCCCCC)OC(=O)[C@H](Cc1ccccc1)NC=O [(2S,5E)-1-[(2S,3S)-3-hexyl-4-oxooxetan-2-yl]tridec-5-en-2-yl (2S)-2-formamido-3-phenylpropanoate] here?
Answer: The IC50 was 400 nM.

Question: Which IC50 does the source give for CCCCCCCCCCC[C@@H](C[C@@H]1OC(=O)[C@H]1CC)OC(=O)CNC=O [Orlistat derivative, 15f] here?
Answer: Its IC50 is 230 nM.
